# Measured values published in PubChem BioAssay (NCI).
#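 Each compound was tested at five concentrations against cells in 96-well plates for 48 hours. The concentration for full growth arrest is given as TGI.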
# Legend:
# Experiment in all cases: DTP human tumour cell line panel, 48 h
# T-47D breast = tested on: T-47D breast
# A549 NSCLC = tested on: A549 NSCLC
# UACC-62 melanoma = tested on: UACC-62 melanoma
# HCT-116 colon = tested on: HCT-116 colon
# SK-MEL-28 melanoma = tested on: SK-MEL-28 melanoma
# OVCAR-3 ovarian = tested on: OVCAR-3 ovarian
# TK-10 renal = tested on: TK-10 renal
# SW-620 colon = tested on: SW-620 colon
# NCI/ADR-RES ovarian = tested on: NCI/ADR-RES ovarian
# BT-549 breast = tested on: BT-549 breast
# HT29 colon = tested on: HT29 colon
# PC-3 prostate = tested on: PC-3 prostate
# IGROV1 ovarian = tested on: IGROV1 ovarian
# HOP-92 NSCLC = tested on: HOP-92 NSCLC
# U251 CNS = tested on: U251 CNS
# SF-268 CNS = tested on: SF-268 CNS
# DU-145 prostate = tested on: DU-145 prostate
# SN12C renal = tested on: SN12C renal
# EKVX NSCLC = tested on: EKVX NSCLC
# UO-31 renal = tested on: UO-31 renal
# SK-MEL-5 melanoma = tested on: SK-MEL-5 melanoma
# MCF7 breast = tested on: MCF7 breast
# K-562 leukemia = tested on: K-562 leukemia
# CAKI-1 renal = tested on: CAKI-1 renal
# OVCAR-4 ovarian = tested on: OVCAR-4 ovarian
# MDA-MB-435 = tested on: MDA-MB-435
# NCI-H522 lung = tested on: NCI-H522 lung
# CCRF-CEM leukemia = tested on: CCRF-CEM leukemia
# HOP-62 NSCLC = tested on: HOP-62 NSCLC
# OVCAR-8 ovarian = tested on: OVCAR-8 ovarian
# UACC-257 melanoma = tested on: UACC-257 melanoma
# ACHN renal = tested on: ACHN renal
# M14 melanoma = tested on: M14 melanoma
# KM12 colon = tested on: KM12 colon
# HL-60(TB) leukemia = tested on: HL-60(TB) leukemia
# HS 578T breast = tested on: HS 578T breast
# HCC-2998 colon = tested on: HCC-2998 colon
# 786-0 renal = tested on: 786-0 renal
# RXF 393 renal = tested on: RXF 393 renal
# HCT-15 colon = tested on: HCT-15 colon
# NCI-H23 lung = tested on: NCI-H23 lung
# NCI-H460 lung = tested on: NCI-H460 lung
# SNB-75 CNS = tested on: SNB-75 CNS
# A498 renal = tested on: A498 renal
# MOLT-4 leukemia = tested on: MOLT-4 leukemia
# MDA-MB-231 breast = tested on: MDA-MB-231 breast
# OVCAR-5 ovarian = tested on: OVCAR-5 ovarian
# COLO 205 colon = tested on: COLO 205 colon
# SF-539 CNS = tested on: SF-539 CNS
# SK-OV-3 ovarian = tested on: SK-OV-3 ovarian
# SF-295 CNS = tested on: SF-295 CNS
# RPMI-8226 leukemia = tested on: RPMI-8226 leukemia
# NCI-H226 lung = tested on: NCI-H226 lung
# SK-MEL-2 melanoma = tested on: SK-MEL-2 melanoma
# SNB-19 CNS = tested on: SNB-19 CNS
# LOX IMVI melanoma = tested on: LOX IMVI melanoma
# MALME-3M melanoma = tested on: MALME-3M melanoma
structure (smiles),measurement,setting,value
CSc1nc(-c2ccccc2)c(C#N)c(=O)[nH]1,TGI,T-47D breast,> 100 µM
same,TGI,A549 NSCLC,> 100 µM
same,TGI,UACC-62 melanoma,> 100 µM
same,TGI,HCT-116 colon,> 100 µM
same,TGI,SK-MEL-28 melanoma,> 100 µM
same,TGI,OVCAR-3 ovarian,> 100 µM
same,TGI,TK-10 renal,> 100 µM
same,TGI,SW-620 colon,> 100 µM
same,TGI,NCI/ADR-RES ovarian,> 100 µM
same,TGI,BT-549 breast,> 100 µM
same,TGI,HT29 colon,> 100 µM
same,TGI,PC-3 prostate,> 100 µM
same,TGI,IGROV1 ovarian,> 100 µM
same,TGI,HOP-92 NSCLC,> 100 µM
same,TGI,U251 CNS,> 100 µM
same,TGI,SF-268 CNS,> 100 µM
same,TGI,DU-145 prostate,> 100 µM
same,TGI,SN12C renal,> 100 µM
same,TGI,EKVX NSCLC,> 100 µM
same,TGI,UO-31 renal,> 100 µM
same,TGI,SK-MEL-5 melanoma,> 100 µM
same,TGI,MCF7 breast,> 100 µM
same,TGI,K-562 leukemia,> 100 µM
same,TGI,CAKI-1 renal,> 100 µM
same,TGI,OVCAR-4 ovarian,> 100 µM
same,TGI,MDA-MB-435,> 100 µM
same,TGI,NCI-H522 lung,> 100 µM
same,TGI,CCRF-CEM leukemia,> 100 µM
same,TGI,HOP-62 NSCLC,> 100 µM
same,TGI,OVCAR-8 ovarian,> 100 µM
same,TGI,UACC-257 melanoma,> 100 µM
same,TGI,ACHN renal,> 100 µM
same,TGI,M14 melanoma,> 100 µM
same,TGI,KM12 colon,> 100 µM
same,TGI,HL-60(TB) leukemia,> 100 µM
same,TGI,HS 578T breast,> 100 µM
same,TGI,HCC-2998 colon,> 100 µM
same,TGI,786-0 renal,> 100 µM
same,TGI,RXF 393 renal,> 100 µM
same,TGI,HCT-15 colon,> 100 µM
same,TGI,NCI-H23 lung,> 100 µM
same,TGI,NCI-H460 lung,> 100 µM
same,TGI,SNB-75 CNS,> 100 µM
same,TGI,A498 renal,> 100 µM
same,TGI,MOLT-4 leukemia,> 100 µM
same,TGI,MDA-MB-231 breast,> 100 µM
same,TGI,OVCAR-5 ovarian,> 100 µM
same,TGI,COLO 205 colon,> 100 µM
same,TGI,SF-539 CNS,> 100 µM
same,TGI,SK-OV-3 ovarian,> 100 µM
same,TGI,SF-295 CNS,> 100 µM
same,TGI,RPMI-8226 leukemia,> 100 µM
same,TGI,NCI-H226 lung,> 100 µM
same,TGI,SK-MEL-2 melanoma,> 100 µM
same,TGI,SNB-19 CNS,> 100 µM
CS(=O)(=O)Nc1ccc(Nc2cc[nH]c3ccc4nccc4c23)cc1,TGI,T-47D breast,22.6 µM
same,TGI,A549 NSCLC,38.8 µM
same,TGI,UACC-62 melanoma,28.1 µM
same,TGI,HCT-116 colon,> 43.1 µM
same,TGI,SK-MEL-28 melanoma,32.2 µM
same,TGI,OVCAR-3 ovarian,32.5 µM
same,TGI,TK-10 renal,82.1 µM
same,TGI,SW-620 colon,49.8 µM
same,TGI,NCI/ADR-RES ovarian,> 100 µM
same,TGI,BT-549 breast,40 µM
same,TGI,HT29 colon,48.4 µM
same,TGI,PC-3 prostate,30.3 µM
same,TGI,IGROV1 ovarian,58.5 µM
same,TGI,HOP-92 NSCLC,46.3 µM
same,TGI,U251 CNS,22 µM
same,TGI,SF-268 CNS,18.9 µM
same,TGI,DU-145 prostate,22.2 µM
same,TGI,SN12C renal,32.3 µM
same,TGI,EKVX NSCLC,58.7 µM
same,TGI,UO-31 renal,> 81.2 µM
same,TGI,SK-MEL-5 melanoma,24.7 µM
same,TGI,MCF7 breast,20.7 µM
same,TGI,LOX IMVI melanoma,34.2 µM
same,TGI,K-562 leukemia,32 µM
same,TGI,CAKI-1 renal,68.4 µM
same,TGI,OVCAR-4 ovarian,26.2 µM
same,TGI,MDA-MB-435,29.5 µM
same,TGI,MALME-3M melanoma,18.4 µM
same,TGI,NCI-H522 lung,24.3 µM
same,TGI,CCRF-CEM leukemia,> 67.8 µM
same,TGI,HOP-62 NSCLC,37.3 µM
same,TGI,OVCAR-8 ovarian,> 65.1 µM
same,TGI,UACC-257 melanoma,31.5 µM
same,TGI,ACHN renal,65.3 µM
same,TGI,M14 melanoma,30.4 µM
same,TGI,KM12 colon,28.1 µM
same,TGI,HL-60(TB) leukemia,42 µM
same,TGI,HS 578T breast,> 60.8 µM
same,TGI,HCC-2998 colon,16.3 µM
same,TGI,786-0 renal,38.4 µM
same,TGI,RXF 393 renal,30.2 µM
same,TGI,HCT-15 colon,> 100 µM
same,TGI,NCI-H23 lung,38.5 µM
same,TGI,NCI-H460 lung,31.8 µM
same,TGI,A498 renal,34.2 µM
same,TGI,MOLT-4 leukemia,7.78 µM
same,TGI,MDA-MB-231 breast,21.6 µM
same,TGI,OVCAR-5 ovarian,61.1 µM
same,TGI,COLO 205 colon,44.2 µM
same,TGI,SK-OV-3 ovarian,> 100 µM
same,TGI,SF-295 CNS,62.2 µM
same,TGI,RPMI-8226 leukemia,44.6 µM
same,TGI,NCI-H226 lung,24.5 µM
same,TGI,SK-MEL-2 melanoma,23.9 µM
same,TGI,SNB-19 CNS,26.3 µM
